In patent US20040141939A1, “Cosmetic or dermatological use of peptides for promoting adhesion between skin cells” (priority 2001, published 2004):
Peptide text beside a SMILES is read from it.

Key:
[1] = Stability of the peptide by HPLC at various temperatures; format: physicochemical; conditions: 10^-4 M; after 8 days at 25° C.
Description: The Peptide Lys-Leu-Asp-Ala-Pro-Thr was analyzed with a concentration of 10^-4 M by HPLC on a column of the C18 type, and with a linear gradient water/TFA 0.1%-acetonitril/TFA 0.1%.

[2] = test system: fibroblasts and keratinocytes in culture; assay: Peptide applied to fibroblasts and keratinocytes in culture, HPLC analysis of the culture medium; format: in vitro ADME, human; conditions: in a few hours
Description: A test is carried out by applying the peptide to the fibroblasts and to the keratinocytes in culture.
This assumption is then consolidated by the tests of effectiveness exposed in the following examples.

[3] = Stability of the peptide in culture medium conditioned by human fibroblasts and keratinocytes (released degradation enzymes), HPLC; format: in vitro ADME; conditions: medium from human fibroblasts and keratinocytes cultivated 24 hours at 37° C.; after 24 hours with peptide
Description: Human fibroblasts and keratinocytes were cultivated during 24 hours at 37° C. and 5% of CO2. For this period, the cells will release many degradation enzymes in the culture medium. Thereafter, the culture medium is removed to be put in the presence of the peptide.

keratinocytes = assay: Adhesion of keratinocytes to pre-treated 96 wells micro-plates (MTT, OD 560 nm against 630 nm); format: cell-based; conditions: Condition C: wells pre-treated 12 hours at 50 ppm; 3 hours contact with keratinocytes
Description: The study is carried out in 96 wells micro-plates on keratinocytes cultured in an incubator at 37° C. and 5% of CO2.
The wells of these plates are pre-treated, for 12 hours, in different ways; four conditions have been realized:
Condition A: negative control, not containing peptide;
Condition B: incubated with various peptides, made up from 3 to 25 amino acids, with a concentration of 35 ppm;
Condition C: incubated with fibronectin with a concentration of 50 ppm;
Condition D: incubated with the peptide of sequence Lys-Leu-Asp-Ala-Pro-Thr to a concentration of 5 ppm.
After 3 hours of contact with the keratinocytes, the wells are completely filled with medium, hermetically closed, turned over and agitated on a three-dimensional agitator during 20 minutes. Then the plates are emptied and the remaining medium is aspired. Then, 100 μl of MTT with 1 mg/ml are added by wells and are left for 3 hours at 37° C. and 5% CO2. The solution is finally withdrawn, then 100 μl of DMSO is added. A reading of the OD is made at 560 nm against 630 nm.
The OD is proportional to the quantity of viable cells, i.e. which adhered to the micro-plates.

Compound	peptide degradation (HPLC) [1]	peptide concentration in culture medium [2]	degradation of peptide in conditioned culture medium [3]	O.D. (adhered viable cells) (keratinocytes)
CC(C)C[C@H](NC(=O)[C@@H](N)CCCCN)C(=O)N[C@@H](CC(=O)O)C(=O)N[C@@H](C)C(=O)N1CCC[C@H]1C(=O)N[C@H](C(=O)O)[C@@H](C)O [Lys-Leu-Asp-Ala-Pro-Thr] (H-KLDAPT-OH; N-terminus and C-terminus assumed)	no peptide degradation	decreases quickly	almost no degradation	
fibronectin				0.770
